In patent US5106854A, “Quinolinecarboxylic acids” (Shionogi & Co., Ltd., priority 1988, dated 1992):
Values after ≈ are worked out from the molar mass of the structure shown. Structures can show the parent of a compound that is named as a salt. Each block holds one compound with its values, some of them ahead of it.

How the values were obtained:
Assay type in all cases: cell-based
[1] = system: Staphylococcus aureus SR 14 (R); test: Antibacterial spectrum, minimum growth inhibitory concentration (MIC), strain B; conditions: 10^6 cells/ml, Japan Society of Chemotherapy method
Protocol: The antibacterial activity was determined by measuring minimum growth inhibitory concentrations (MICs) in accordance with the method designated by the Japan Society of Chemotherapy.
A, B, C and D in the table indicate the following meanings:
B: Staphylococcus aureus SR 14 (R)
The test microorganisms were used at 10^6 cells/ml.

Escherichia coli EC-14 = test: Antibacterial spectrum, minimum growth inhibitory concentration (MIC), strain C; conditions: EC14, 10^6 cells/ml, Japan Society of Chemotherapy method
Protocol: (§1) The antibacterial activity was determined by measuring minimum growth inhibitory concentrations (MICs) in accordance with the method designated by the Japan Society of Chemotherapy. A, B, C and D in the table indicate the following meanings: C: Escherichia coli EC-14 The test microorganisms were used at 10^6 cells/ml.

[2] = system: Escherichia coli SR377 (R); test: Antibacterial spectrum, minimum growth inhibitory concentration (MIC), strain D; conditions: 10^6 cells/ml, Japan Society of Chemotherapy method
Protocol: as §1, with “D:” for “C:”, “SR377 (R).” for “EC-14”

[3] = system: Staphylococcus aureus SMITH; test: Antibacterial spectrum, minimum growth inhibitory concentration (MIC), strain A; conditions: 10^6 cells/ml, Japan Society of Chemotherapy method
Protocol: as §1, with “A: Staphylococcus aureus SMITH” for “C: Escherichia coli EC-14”

SMILES: CN[C@@H]1CN(c2c(F)c(N)c3c(=O)c(C(=O)O)cn(C4CC4)c3c2F)C[C@@H]1OC.Cl [Compound I-2, (-)-1-Cyclopropyl-5-amino-6,8-difluoro-1,4-dihydro-7-(cis-3-methylamino-4-methoxy-1-pyrrolidinyl)-4-oxo-3-quinolinecarboxylic acid hydrochloride]
MIC [1]: 0.05 µg/mL | MIC (Escherichia coli EC-14): 0.05 µg/mL | MIC [2]: 0.1 µg/mL | MIC [3]: 0.05 µg/mL

SMILES: CO[C@@H]1CN(c2c(F)c(N)c3c(=O)c(C(=O)O)cn(C4CC4)c3c2F)C[C@@H]1N [Compound I-3, (+)-1-Cyclopropyl-5-amino-6,8-difluoro-1,4-dihydro-7-(cis-3-amino-4-methoxy-1-pyrrolidinyl)-4-oxo-3-quinolinecarboxylic acid hydrochloride]
MIC [1]: 0.05 µg/mL | MIC (Escherichia coli EC-14): 0.02 µg/mL | MIC [2]: 0.1 µg/mL | MIC [3]: 0.05 µg/mL

SMILES: CN[C@H]1CN(c2c(F)c(N)c3c(=O)c(C(=O)O)cn(C4CC4)c3c2F)C[C@H]1OC [Compound I-1, (+)-1-Cyclopropyl-5-amino-6,8-difluoro-1,4-dihydro-7-(cis-3-methylamino-4-methoxy-1-pyrrolidinyl)-4-oxo-3-quinolinecarboxylic acid hydrochloride]
MIC [1]: 0.1 µg/mL | MIC (Escherichia coli EC-14): 0.1 µg/mL | MIC [2]: 0.2 µg/mL | MIC [3]: 0.1 µg/mL

SMILES: CO[C@H]1CN(c2c(F)c(N)c3c(=O)c(C(=O)O)cn(C4CC4)c3c2F)C[C@H]1N [Compound I-4, (-)-1-Cyclopropyl-5-amino-6,8-difluoro-1,4-dihydro-7-(cis-3-amino-4-methoxy-1-pyrrolidinyl)-4-oxo-3-quinolinecarbxylic acid hydrochloride]
MIC [1]: 0.02 µg/mL | MIC (Escherichia coli EC-14): 0.02 µg/mL | MIC [2]: 0.05 µg/mL | MIC [3]: 0.02 µg/mL

More lines, now with the values ahead:

MIC [1]: 0.4 µg/mL (≈ 1.11 µM) | MIC (Escherichia coli EC-14): 0.1 µg/mL (≈ 0.277 µM) | MIC [2]: 0.1 µg/mL (≈ 0.277 µM) | MIC [3]: 0.2 µg/mL (≈ 0.553 µM)
SMILES: CC1COc2c(N3CCN(C)CC3)c(F)cc3c(=O)c(C(=O)O)cn1c23 (stereo not shown) [OFLX, ofloxacin, reference compound]

MIC [1]: 0.05 µg/mL (≈ 0.122 µM) | MIC (Escherichia coli EC-14): 0.05 µg/mL (≈ 0.122 µM) | MIC [2]: 0.1 µg/mL (≈ 0.245 µM) | MIC [3]: 0.05 µg/mL (≈ 0.122 µM)
SMILES: CN[C@@H]1CN(c2c(F)c(N)c3c(=O)c(C(=O)O)cn(C4CC4)c3c2F)C[C@@H]1OC (relative stereo) [Compound I-11, 1-Cyclopropyl-5-amino-6,8-difluoro-1,4-dihydro-7-(cis-3-methylamino-4-methoxy-1-pyrrolidinyl)-4-oxo-3-quinolinecarboxylic acid]

MIC [1]: 0.05 µg/mL (≈ 0.127 µM) | MIC (Escherichia coli EC-14): 0.02 µg/mL (≈ 0.0507 µM) | MIC [2]: 0.05 µg/mL (≈ 0.127 µM) | MIC [3]: 0.02 µg/mL (≈ 0.0507 µM)
SMILES: CO[C@H]1CN(c2c(F)c(N)c3c(=O)c(C(=O)O)cn(C4CC4)c3c2F)C[C@H]1N (relative stereo) [Compound I-5, 1-Cyclopropyl-5-amino-6,8-difluoro-1,4-dihydro-7-(cis-3-amino-4-methoxy-1-pyrrolidinyl)-4-oxo-3-quinolinecarboxylic acid]
